Experimental data: US7893055B2, “HIV integrase inhibitors” (priority 2006, dated 2011)

What was measured:
[1] = tested on: recombinant NL-Rluc virus; assay: Inhibition of HIV replication (NL-Rluc virus, luciferase); type: cell-based; details: NL-Rluc pseudotype virus; serum condition of tabulated values not stated (10% FBS, 15 mg/ml HSA/10% FBS or 40% human serum/5% FBS); read-out: Activity (EC50 class, inhibition of HIV replication)
[2] = biological target: T1, HIV-integrase (Human immunodeficiency virus type 1 group M subtype B, UniProt P12497); assay: HIV-Integrase Inhibition Activity (SPA strand transfer assay); type: biochemical; details: recombinant integrase, SPA beads, P33 labeled target DNA; read-out: Activity (IC50 class, HIV-integrase inhibition)
T1 construct: Recombinant integrase (0.26 ng) was incubated with the beads
Procedure: HIV-Integrase InhibitionActivity. To evaluate in-vitro activity against HIV-integrase, 5 pmole of biotin labeled substrate DNA was bound to 100 μg of Streptavidin coated PVT SPA beads (Amersham Pharmacia Biotech). Recombinant integrase (0.26 ng) was incubated with the beads for 90 min at 37° C. Unbound enzyme was removed by washing the complex followed by addition of inhibitors and 0.1 fmol of P33 labeled target DNA. The reaction was stopped by adding EDTA to a final concentration of 10 mM. Samples were counted in TopCountNXT (Packard) and the CPM was used as a measure of integration. The reaction condition was as described in A. Engelman and R. Craigie, J. Virol. 69, 5908-5911 (1995). The sequences of substrate and target DNA were described in Nucleic Acid Research 22, 1121-1122 (1994). Activity equal to A refers to a compound having IC50=0.002 to 0.10 μM while B and C denote compounds having IC50=0.1 to 1.0 μM and IC50≧1.0 μM respectively.

Compound	EC50 [1] [µM]	IC50 [2] [µM]	melting point [°C]
Pyrimido[2,1-c][1,4]oxazine-2- carboxamide, N-(1,2-benzisoxazol- 3-ylmethyl)-4,6,7,9-tetrahydro-3- hydroxy-9,9-dimethyl-4-oxo- [Example 59]	0.1 to 1	0.002 to 0.1	–
Pyrimido[2,1-c][1,4]oxazine-2- carboxamide, N-[(2-bromo-3- thienyl)methy]-4,6,7,9-tetrahydro- 3-hydroxy-9,9-dimethyl-4-oxo- [Example 41]	0.1 to 1	0.002 to 0.1	–
Pyrimido[2,1-c][1,4]oxazine-2- carboxamide, N-(2- benzofuranylmethyl)-4,6,7,9- tetrahydro-3-hydroxy-9,9- dimethyl-4-oxo- [Example 56]	0.003 to 0.1	0.002 to 0.1	–
Pyrimido[2,1-c][1,4]oxazine-2- carboxamide, N-[(2,5-dimethyl-3- furanyl)methyl]-4,6,7,9- tetrahydro-3-hydroxy-9,9- dimethyl-4-oxo- [Example 44]	0.003 to 0.1	0.002 to 0.1	–
Cc1ncc(CNC(=O)c2nc3n(c(=O)c2O)CCOC3(C)C)s1 [Example 85, 3-Hydroxy-9,9-dimethyl-N-((2-methylthiazol-5-yl)methyl)-4-oxo-4,6,7,9-tetrahydropyrimido[2,1-c][1,4]oxazine-2-carboxamide]	–	0.002 to 0.1	245
Pyrimido[2,1-c][1,4]oxazine-2- carboxamide, N-[(1-ethyl-1H- pyrazol-3-yl)methyl]-4,6,7,9- tetrahydro-3-hydroxy-9,9- dimethyl-4-oxo- [Example 67]	0.1 to 1	0.002 to 0.1	–
Pyrimido[2,1-c][1,4]oxazine-2- carboxamide, N-(benzo[b]thien-3- ylmethyl)-4,6,7,9-tetrahydro-3- hydroxy-9,9-dimethyl-4-oxo- [Example 40]	0.1 to 1	0.002 to 0.1	–
Pyrimido[2,1-c][1,4]oxazine-2- carboxamide, N-[(4-chloro-1- ethyl-1H-pyrazol-3-yl)methyl]- 4,6,7,9-tetrahydro-3-hydroxy-9,9- dimethyl-4-oxo- [Example 70]	> 1	0.002 to 0.1	–
Pyrimido[2,1-c][1,4]oxazine-2- carboxamide, 4,6,7,9-tetrahydro-3- hydroxy-9,9-dimethyl-N-[(1- methyl-1H-pyrrol-2-yl)methyl]-4- oxo [Example 47]	–	0.1 to 1	–
CC1(C)OCCn2c1nc(C(=O)NCc1ccc(S(C)(=O)=O)o1)c(O)c2=O [Example 88, 3-Hydroxy-9,9-dimethyl-N-((5-(methylsulfonyl)furan-2-yl)methyl)-4-oxo-4,6,7,9-tetrahydropyrimido[2,1-c][1,4]oxazine-2-carboxamide]	–	0.1 to 1	–
CNC(=O)n1nc(CNC(=O)c2nc3n(c(=O)c2O)CCOC3(C)C)c2ccccc21 [Example 80, 3-Hydroxy-9,9-dimethyl-N-((1-(methylcarbamoyl)-1H-indazol-3-yl)methyl)-4-oxo-4,6,7,9-tetrahydropyrimido[2,1-c][1,4]oxazine-2-carboxamide]	–	0.002 to 0.1	–
CC1(C)OCCn2c1nc(C(=O)NCc1cc(-c3ccccc3)no1)c(O)c2=O [Example 89, 3-Hydroxy-9,9-dimethyl-4-oxo-N-((3-phenyl-5-isoxazolyl)methyl)-4,6,7,9-tetrahydropyrimido[2,1-c][1,4]oxazine-2-carboxamide]	–	≥ 1	–
Pyrimido[2,1-c][1,4]oxazine-2- carboxamide, 4,6,7,9-tetrahydro-3- hydroxy-9,9-dimethyl-N-[[5- methyl-2-(trifluoromethyl)-3- furanyl]methy]-4-oxo- [Example 42]	0.1 to 1	0.002 to 0.1	–
Cn1nc(CNC(=O)c2nc3n(c(=O)c2O)CCOC3(C)C)c2ccccc21 [Example 13, Pyrimido[2,1-c][1,4]oxazine-2-carboxamide, 4,6,7,9-tetrahydro-3-hydroxy-9,9-dimethyl-N-[(1-methyl-1H-indazol-3-yl)methyl]-4-oxo-]	–	0.002 to 0.1	–
COC(=O)n1nc(CNC(=O)c2nc3n(c(=O)c2O)CCOC3(C)C)c2ccccc21 [Example 79, Methyl 3-((((3-hydroxy-9,9-dimethyl-4-oxo-4,6,7,9-tetrahydropyrimido[2,1-c][1,4]oxazin-2-yl)carbonyl)amino)methyl)-1H-indazole-1-carboxylate]	–	0.002 to 0.1	–
CCCn1ccc(CNC(=O)c2nc3n(c(=O)c2O)CCOC3(C)C)n1 [Example 93, 3-Hydroxy-9,9-dimethyl-4-oxo-N-((1-propyl-1H-pyrazol-3-yl)methyl)-4,6,7,9-tetrahydropyrimido[2,1-c][1,4]oxazine-2-carboxamide]	–	0.1 to 1	–
Pyrimido[2,1-c][1,4]oxazine-2- carboxamide, 4,6,7,9-tetrahydro-3- hydroxy-N-[2-(5-hydroxy-1H- indol-3-yl)ethyl]-9,9-dimethyl-4- oxo- [Example 51]	–	≥ 1	–
CC1(C)OCCn2c1nc(C(=O)NCc1nn(S(C)(=O)=O)c3ccccc13)c(O)c2=O [Example 78, 3-Hydroxy-9,9-dimethyl-N-((1-(methylsulfonyl)-1H-indazol-3-yl)methyl)-4-oxo-4,6,7,9-tetrahydropyrimido[2,1-c][1,4]oxazine-2-carboxamide]	–	0.002 to 0.1	–
Cc1nn(C)c(C)c1CNC(=O)c1nc2n(c(=O)c1O)CCOC2(C)C [Example 39, Pyrimido[2,1-c][1,4]oxazine-2-carboxamide, 4,6,7,9-tetrahydro-3-hydroxy-9,9-dimethyl-4-oxo-N-[(1,3,5-trimethyl-1H-pyrazol-4-yl)methyl]-]	–	0.1 to 1	–
Pyrimido[2,1-c][1,4]oxazine-2- carboxamide, N-[(1,3-dimethyl- 1H-pyrazol-4-yl)methyl]-4,6,7,9- tetrahydro-3-hydroxy-9,9- dimethyl-4-oxo- [Example 61]	–	0.1 to 1	–
CNC(=O)c1ccoc1CNC(=O)c1nc2n(c(=O)c1O)CCOC2(C)C [Example 12, Pyrimido[2,1-c][1,4]oxazine-2-carboxamide, 4,6,7,9-tetrahydro-3-hydroxy-9,9-dimethyl-N-[[3-[(methylamino)carbonyl]-2-furanyl]methyl]-4-oxo-]	–	0.002 to 0.1	–
CC1(C)OCCn2c1nc(C(=O)NCc1cc(C(=O)O)co1)c(O)c2=O [Example 75, 3-Furancarboxylic acid, 5-[[[(4,6,7,9-tetrahydro-3-hydroxy-9,9-dimethyl-4-oxopyrimido[2,1-c][1,4]oxazin-2-yl)carbonyl]amino]methyl]]	–	≥ 1	–
CC1(C)OCCn2c1nc(C(=O)NCc1cccs1)c(O)c2=O [Example 28, Pyrimido[2,1-c][1,4]oxazine-2-carboxamide, 4,6,7,9-tetrahydro-3-hydroxy-9,9-dimethyl-4-oxo-N-(2-thienylmethyl)-]	–	0.002 to 0.1	–
Pyrimido[2,1-c][1,4]oxazine-2- carboxamide, N-[[3-(4- chlorophenyl)-5- isoxazolyl]methyl]-4,6,7,9- tetrahydro-3-hydroxy-9,9- dimethyl-4-oxo- [Example 45]	–	≥ 1	–
Pyrimido[2,1-c][1,4]oxazine-2- carboxamide, 4,6,7,9-tetrahydro-3- hydroxy-9,9-dimethyl-N-[(1- methyl-1H-pyrazol-3-yl)methyl]-4- oxo- [Example 72]	0.1 to 1	0.002 to 0.1	–
CC1(C)OCCn2c1nc(C(=O)NCc1ccco1)c(O)c2=O [Example 38, Pyrimido[2,1-c][1,4]oxazine-2-carboxamide, N-(2-furanylmethyl)-4,6,7,9-tetrahydro-3-hydroxy-9,9-dimethyl-4-oxo-]	–	0.002 to 0.1	–
Cc1ccc(CNC(=O)c2nc3n(c(=O)c2O)CCOC3(C)C)n1C [Example 9, Pyrimido[2,1-c][1,4]oxazine-2-carboxamide, N-[(1,5-dimethyl-1H-pyrrol-2-yl)methyl]-4,6,7,9-tetrahydro-3-hydroxy-9,9-dimethyl-4-oxo-]	–	0.002 to 0.1	–
2-Thiopheneacetic acid, 5- [[[(4,6,7,9-tetrahydro-3-hydroxy- 9,9-dimethyl-4-oxopyrimido[2,1- c][1,4]oxazin-2- yl)carbonyl]amino]methy]- [Example 55]	–	0.1 to 1	–
CC1(C)OCCn2c1nc(C(=O)NCc1cc3ccccc3s1)c(O)c2=O [Example 1, Pyrimido[2,1-c][1,4]oxazine-2-carboxamide, N-(benzo[b]thien-2-ylmethyl)-4,6,7,9-tetrahydro-3-hydroxy-9,9-dimethyl-4-oxo-]	–	0.002 to 0.1	–
